Results taken from patent US8039639B2, “Kinase inhibitors and methods of use thereof” (Array BioPharma Inc., priority 2006, dated 2011).
Residues, ends and D or L forms follow the SMILES beside them. *: point of attachment. Cbz = O=C(OCc1ccccc1)*

Experiments:
K562 cells = assay: K562 subcutaneous tumor model (BCR-Abl-driven tumors); assay type: in vivo, Female Scid-beige mice; settings: K562 tumors, PO ×7, dosed as Compound 74
Protocol: Test compounds were administered by oral gavage at the indicated doses and schedules when tumors reached 200±50 mm^3 in size. […] Tumor size and body weight were monitored throughout the study.

Solubility determination = assay type: physicochemical
p38α = p38α (Homo sapiens, UniProt Q16539); assay: in-house p38α radioactive kinase assay using ATF-2 as a substrate; assay type: biochemical; settings: ATF-2 substrate
p38α, sequence (Q16539 whole entry, the tested form may be a part): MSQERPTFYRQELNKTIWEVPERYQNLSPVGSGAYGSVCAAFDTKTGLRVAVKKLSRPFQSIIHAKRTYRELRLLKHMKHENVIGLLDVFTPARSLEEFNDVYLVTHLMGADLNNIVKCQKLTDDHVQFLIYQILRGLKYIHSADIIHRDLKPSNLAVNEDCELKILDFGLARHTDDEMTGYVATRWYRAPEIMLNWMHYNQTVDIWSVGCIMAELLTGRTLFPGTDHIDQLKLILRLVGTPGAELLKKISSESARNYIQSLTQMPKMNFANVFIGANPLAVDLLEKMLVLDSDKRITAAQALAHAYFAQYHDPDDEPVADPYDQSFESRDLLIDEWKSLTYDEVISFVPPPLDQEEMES
Protocol: p38 activity was assayed at room temperature in a 100 μL reaction containing 5 nM activated p38α enzyme and 1 μM ATF-2 (Activating Transcription Factor 2 fusion protein) as the substrate in 25 mM HEPES (pH 7.4), 100 μM Vanadate, 1 mM DTT, 10 mM MgCl2 and 10 μM [γ-^33P]-ATP (˜0.1 μCi P^33/reaction). The reaction was terminated after 30-40 minutes by adding 25% TCA, allowed to stand for 5 minutes, and then transferred directly to a GF-B membrane filter plate. The filter was washed twice for 30 seconds with 0.5% phosphoric acid using a Tomtec Mach III Automated Harvestor. After washing, the vacuum was continued for 30 seconds to dry the filter. Approximately 30 μL of scintillant was added per well to the filter plate and then read in a Liquid Scintillation Counter (Packard TopCount HTS).

Abl = Abl (Homo sapiens, UniProt P00519); assay: protein kinase IC50 determination (ATP at Km); assay type: biochemical; settings: ATP concentration at Km
Abl, sequence (P00519 whole entry, species assumed): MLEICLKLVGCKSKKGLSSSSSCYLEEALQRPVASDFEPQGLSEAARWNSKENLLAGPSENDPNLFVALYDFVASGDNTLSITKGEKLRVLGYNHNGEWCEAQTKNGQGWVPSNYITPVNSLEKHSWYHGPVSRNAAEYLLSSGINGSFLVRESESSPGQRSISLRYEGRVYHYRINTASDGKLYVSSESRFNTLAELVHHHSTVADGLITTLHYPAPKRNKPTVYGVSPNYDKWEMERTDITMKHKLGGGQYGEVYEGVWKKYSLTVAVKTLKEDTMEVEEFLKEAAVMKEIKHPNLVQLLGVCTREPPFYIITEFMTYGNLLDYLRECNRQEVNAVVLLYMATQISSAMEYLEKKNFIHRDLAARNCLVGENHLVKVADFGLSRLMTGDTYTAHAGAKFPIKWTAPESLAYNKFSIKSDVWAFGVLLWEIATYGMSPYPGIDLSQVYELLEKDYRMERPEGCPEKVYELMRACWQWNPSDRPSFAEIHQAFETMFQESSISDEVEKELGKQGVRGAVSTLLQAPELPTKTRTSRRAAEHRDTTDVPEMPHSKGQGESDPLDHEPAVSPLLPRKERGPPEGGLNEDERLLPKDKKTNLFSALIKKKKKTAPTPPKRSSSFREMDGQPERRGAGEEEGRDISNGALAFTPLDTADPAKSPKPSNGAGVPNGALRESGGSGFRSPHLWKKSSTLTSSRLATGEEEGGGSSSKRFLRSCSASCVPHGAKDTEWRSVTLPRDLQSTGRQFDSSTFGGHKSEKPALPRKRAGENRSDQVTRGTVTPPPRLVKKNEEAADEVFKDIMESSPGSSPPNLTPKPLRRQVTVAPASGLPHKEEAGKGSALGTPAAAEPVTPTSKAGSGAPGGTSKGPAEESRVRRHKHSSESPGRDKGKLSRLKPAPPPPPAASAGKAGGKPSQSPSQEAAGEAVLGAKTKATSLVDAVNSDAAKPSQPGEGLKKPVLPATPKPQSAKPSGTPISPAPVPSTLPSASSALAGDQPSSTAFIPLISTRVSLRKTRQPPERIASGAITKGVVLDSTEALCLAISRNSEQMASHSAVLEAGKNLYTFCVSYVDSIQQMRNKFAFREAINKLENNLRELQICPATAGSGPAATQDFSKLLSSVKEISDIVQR

Tie2 = Tie2 (Homo sapiens, UniProt Q02763); assay: protein kinase IC50 determination (ATP at Km); assay type: biochemical; settings: ATP concentration at Km
Tie2, sequence (Q02763 23-1124, species assumed): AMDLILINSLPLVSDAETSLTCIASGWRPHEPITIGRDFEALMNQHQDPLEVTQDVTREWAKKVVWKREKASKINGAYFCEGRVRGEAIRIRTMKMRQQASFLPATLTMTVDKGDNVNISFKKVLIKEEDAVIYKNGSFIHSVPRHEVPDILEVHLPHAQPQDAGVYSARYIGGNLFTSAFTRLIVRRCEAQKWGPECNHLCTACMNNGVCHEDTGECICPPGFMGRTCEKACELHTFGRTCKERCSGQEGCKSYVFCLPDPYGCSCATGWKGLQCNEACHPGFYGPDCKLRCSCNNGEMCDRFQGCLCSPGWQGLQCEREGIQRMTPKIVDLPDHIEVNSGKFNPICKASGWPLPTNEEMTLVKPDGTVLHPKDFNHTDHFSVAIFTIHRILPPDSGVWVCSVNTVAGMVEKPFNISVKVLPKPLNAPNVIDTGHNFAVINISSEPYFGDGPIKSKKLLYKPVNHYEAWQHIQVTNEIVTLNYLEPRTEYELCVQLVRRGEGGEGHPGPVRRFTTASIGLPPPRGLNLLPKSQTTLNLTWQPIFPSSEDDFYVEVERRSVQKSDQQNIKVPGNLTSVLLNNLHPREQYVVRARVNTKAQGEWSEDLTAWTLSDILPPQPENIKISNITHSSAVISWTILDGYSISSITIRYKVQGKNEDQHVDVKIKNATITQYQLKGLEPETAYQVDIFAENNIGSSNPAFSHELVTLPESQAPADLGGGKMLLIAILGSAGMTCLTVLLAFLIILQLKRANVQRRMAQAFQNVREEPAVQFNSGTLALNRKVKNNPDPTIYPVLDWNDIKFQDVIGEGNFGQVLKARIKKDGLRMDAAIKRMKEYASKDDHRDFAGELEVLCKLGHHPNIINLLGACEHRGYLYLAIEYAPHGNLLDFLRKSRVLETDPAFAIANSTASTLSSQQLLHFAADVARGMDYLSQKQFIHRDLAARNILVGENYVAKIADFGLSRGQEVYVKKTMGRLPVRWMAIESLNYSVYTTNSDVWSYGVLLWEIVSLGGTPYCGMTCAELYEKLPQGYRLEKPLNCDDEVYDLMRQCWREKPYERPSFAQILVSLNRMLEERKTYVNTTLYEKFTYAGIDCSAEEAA

RPMI 8226 = RPMI 8226 cell viability (CellTiter Blue); assay type: cell-based; settings: Homo sapiens; RPMI 8226, 72 hours; read-out: Proliferation IC50
Protocol: Cell viability was then measured using CellTiter Blue (Promega) to determine IC50 values for each compound (Table 8). […] MG-132 produced an IC50 that was within historical ranges of in-house testing (Table 8).

SMILES | % Regression (K562 cells; 30 mg/kg BID) | % Regression (K562 cells; 100 mg/kg BID) [%] | % Regression (K562 cells; 100 mg/kg QD) | solubility (Solubility determination; pH 1.2, simulated gastric fluid) [µg/mL] | IC50 (p38α) [nM] | IC50 (Abl) [nM] | solubility (Solubility determination; pH 6.5, aqueous buffer) [µg/mL] | solubility (Solubility determination; pH 7.4, aqueous buffer) [µg/mL] | IC50 (Tie2) [nM] | IC50 (RPMI 8226) [nM]
Cc1ccc(-n2nc(C(C)(C)C)cc2NC(=O)NCc2cc(F)ccc2Oc2ccc3c(cnn3CCOP(=O)(O)O)c2)cc1 [Compound 74, 2-(5-(2-(3-(3-tert-butyl-1-p-tolyl-1H-pyrazol-5-yl)ureido)methyl)-4-fluorophenoxy)-1H-indazol-1-yl)ethyl dihydrogenphosphate] | tumor stasis | 94 | tumor stasis | < 1000 |  |  |  |  |  | 
Cc1ccc(-n2nc(C(C)(C)C)cc2NC(=O)NCc2cc(F)ccc2Oc2ccc3c(cnn3C)c2)cc1 [Example 94] |  |  |  |  | < 2 | 10 | < 1 | < 1 | 4 | 
Cn1nc(C(C)(C)C)cc1NC(=O)NCc1cc(F)ccc1Oc1ccc2c(cnn2CC(C)(C)O)c1 [Example 138] |  |  |  |  | < 2 | > 500 | < 1 | < 1 | > 500 | 
CC(C)C[C@@H](C=O)NC(=O)[C@H](CC(C)C)NC(=O)[C@H](CC(C)C)NC(=O)OCc1ccccc1 [MG-132, reference compound] (Cbz-Leu-Leu-Leu-aldehyde) |  |  |  |  |  |  |  |  |  | 114
